The source of these data is patent US11026965B2, “Nitric oxide-releasing cyclodextrins as biodegradable antibacterial scaffolds and methods pertaining thereto” (The University of North Carolina at Chapel Hill, priority 2018, dated 2021).

Structures are written as SMILES. In brackets after ≈: the same amount, converted by molar mass. Like-named read-outs stand apart in the source and are kept apart here.

In data set [1] the test system is planktonic P. aeruginosa. As to the kind of experiment: Bactericidal assay against planktonic P. aeruginosa (4 h, static, MBC4h = 3-log reduction). It counts as cell-based, Pseudomonas aeruginosa. Particulars: for MBC: Pseudomonas aeruginosa. On the procedure: Nitric oxide may be an efficient antibacterial agent. The antibacterial activity of the NO-releasing CD derivatives was evaluated against Gram-negative P. aeruginosa, a model pathogen associated with serious medical infections (e.g., traumatic burns, cystic fibrosis). Pseudomonas aeruginosa is a Gram-negative pathogen. Bacterial viability assays were performed under static conditions. Minimum bactericidal concentrations over 4 hours exposure (MBC4h) were used to quantify their bactericidal activity, being required to eliminate bacteria viability by 3 logs (e.g., 99.9% killing). The total NO amount delivered by NO-releasing CD derivatives over this period was also calculated to quantitatively evaluate the required NO dose to achieve bactericidal activity.
The TSA bacterial stock of P. aeruginosa colony was cultured in 3 mL of TSB overnight (around 16 hours) at 37° C. A 1000 μL aliquot of the resulting suspension was added into 15 mL of fresh TSB and incubated at 37° C. for another 2 hours, to achieve a concentration of 10^8 colony forming units per mL (CFU/mL, confirmed by the OD600). The bacteria was collected by centrifugation, resuspended in sterile PBS, and diluted to 10^6 CFU/mL. The antibacterial efficacy of both non-NO-releasing and NO-releasing CD derivatives against P. aeruginosa was evaluated under static condition over 4 hours at 37° C. Blanks (untreated cells) were incubated in each experiment to ensure the bacteria remained viable at 10^6 CFU/mL over 4 hour assay. 100 μL aliquots of blank, control or NO-releasing CD derivatives treated bacteria suspensions were shifted, diluted 10-fold in sterile H2O and plated on TSA plates using an Eddy Jet spiral plater (IUL; Farmingdale, N.Y.), followed by incubation overnight at 37° C. Bacterial viability was evaluated via total colony count on the TSA plates by using a Flash & Go colony counter (IUL; Farmingdale, N.Y.). […] Of note, the limit of detection for this selected plate counting method is 2.5×10^3 CFU/mL.
Additional testing was done to determine the antibacterial efficacy and toxicity of DETA, DETA/NO (DETA functionalized with NO), and DETA/NO mixed with CD (at ratios of 1:1 or 1:2) as compared to CD-DETA or CD-DETA/NO (CD-DETA functionalized with NO). The same conditions as disclosed above for antibacterial testing and cytotoxicity was used.

Data set [2] concerns A549 human lung carcinoma cells. As to the kind of experiment: Anticancer action against A549 cells, 24 h MTS assay. As to conditions: A549, 24 h MTS; error = 95% confidence interval for IC50. It is filed as cell-based. Here is the method:
Anticancer potential was evaluated against A549 human lung carcinoma cells using an MTS assay. […] All cell work performed in RPMI media and materials corrected for pH using 0.1 M HCl. […]

Data set [3] is described as follows: NO-release properties of NO-releasing cyclodextrins at pH 5.4 and pH 7.4 (Table 5). It counts as physicochemical. Here is the method:
Additional studies were carried out to investigate NO-release properties from β-cyclodextrin under conditions consistent with healthy tissue (pH 7.4) and those of tumor microenvironments (pH 5.4). These studies also evaluated the role of NO-release properties on anticancer action using A549 lung cancer cells with two modifications to vary release kinetics (mono- and hepta-substitution to vary NO totals). This study also evaluated the efficacy of a combined therapeutic (a nitric oxide releasing CD with DOX) as compared to each therapeutic agent individually. […] Several different functionalized CDs were prepared as shown in Table 5 and using techniques as described elsewhere herein. […] All modifications (PA, DETA, and DETA7) except for PA7 have t1/2 under 10 min.

In data set [4] the test system is L929 mouse fibroblasts. Put plainly: In-vitro cytotoxicity, L929 mouse fibroblasts, MTS, 4 h exposure. It is filed as cell-based. On the procedure: L929 mouse fibroblasts were cultured in DMEM supplemented with 10% v/v fetal bovine serum (FBS) and 1 wt % penicillin/streptomycin, and incubated in 5% v/v CO2 under humidified conditions at 37° C. After reaching confluency (80%), the cells were trypsinized, seeded onto tissue-culture treated polystyrene 96-well plates at a density of 1×10^4 cells/mL, and incubated at 37° C. for 24 hours. The supernatant was then aspirated and replaced with 100 μL of fresh growth medium containing various concentrations of both unmodified control and NO-releasing CD derivatives to each well. After incubation at 37° C. for 4 hours, the supernatant was aspirated and 100 μL of a mixture of DMEM/MTS/PMS (105/20/1, v/v/v) was added to each well. The absorbance of the resulting colored solutions over 3 hours incubation was quantified by using a ThermoScientific Multiskan EX plate reader (Waltham, Mass.) at 490 nm. The mixture of DMEM/MTS/PMS and untreated cells were used as a blank and control, respectively. Cell viability was calculated according to the following formula: […]
Despite effective bactericidal capability, the applicability of new antibacterial agents is also determined by their toxicity to mammalian cells. With respect to therapeutic potential, toxicity to mammalian cells is an important factor in the development of any new antibacterial agent. The cytotoxicity of CD-NONOates was evaluated by exposing mouse fibroblast cells to various concentrations (0˜2000 μg/mL) of both control and NO-releasing CD derivatives over a 4 hour exposure. […] Both CD-PA7/NO and CD-MA7/NO were tolerable to the mouse fibroblasts even at 2000 μg/mL (63% and 73% cell viability for CD-PA7/NO and CD-MA7/NO, respectively). […] The behavior is in part related to the effective delivery of NO induced by the fast cellular uptake of positively charged macromolecular systems. This behavior was also ascribed to the large amounts of terminal primary amines groups.

Where [5] appears, read: 4 h exposure, 3-log reduction in viability.

Compound `NCCN(CCN)/[N+]([O-])=N/O` [DETA/NO] yielded an MBC4 h in data set [1] (setting [5]) of 1000 µg/mL.
In data set [2], `CCCNCC1OC2OC3C(CO)OC(OC4C(CO)OC(OC5C(CO)OC(OC6C(CO)OC(OC7C(CO)OC(OC8C(CO)OC(OC1C(O)C2O)C(O)C8O)C(O)C7O)C(O)C6O)C(O)C5O)C(O)C4O)C(O)C3O` (stereo not drawn) [CD-PA] registered an NO dose of 0.97 ± 0.16 µmol/mL. For the same compound, in data set [3] (pH 5.4), the “[NO]max” value stood at 25100 ± 5700 ppb mg^−1, the “[NO]t” value was 0.56 ± 0.09 µmol/mg and the td came to 5.0 ± 0.8 h. In addition, in data set [3] (pH 7.4), the “[NO]max” value is on record as 2100 ± 300 ppb mg^−1, the “[NO]t” value was found to be 0.60 ± 0.07 µmol/mg and the td is reported as 17.0 ± 1.0 h.
As for `CC(CN1c2ccccc2Sc2ccccc21)N(C)C` (stereo not drawn) [PM, promethazine], the “cytotoxicity at MBC4h concentration (in words)” value in data set [4] is recorded as “toxic to the vast majority of the mouse fibroblast cells”. In addition, the MBC in data set [1] (concentration of PM, PM and CD derivative 1:1 molar, read-out: PM MBC4 h) is 100 µg/mL (≈ 352 µM). For the same compound, the MBC4h for PM in data set [1] (concentration of PM) was 100 µg/mL.
In turn, `NCCNCCNCC1OC2OC3C(CO)OC(OC4C(CO)OC(OC5C(CO)OC(OC6C(CO)OC(OC7C(CO)OC(OC8C(CO)OC(OC1C(O)C2O)C(O)C8O)C(O)C7O)C(O)C6O)C(O)C5O)C(O)C4O)C(O)C3O` (stereo not drawn) [CD-DETA] showed an NO dose in data set [2] of 1.07 ± 0.06 µmol/mL. This compound also returned an L929 viability in data set [4] (up to 2 mg/mL) of more than 60%. The entries for the “[NO]max” value in data set [3] (pH 5.4) and in data set [3] (pH 7.4) were 32000 ± 2500 ppb mg^−1 and 900 ± 100 ppb mg^−1, respectively. The “[NO]t” value in data set [3] (pH 5.4) is 0.74 ± 0.04 µmol/mg; in data set [3] (pH 7.4), 0.68 ± 0.03 µmol/mg. Besides, the td is recorded as 14.6 ± 0.8 h in data set [3] (pH 5.4) and 20.2 ± 0.6 h in data set [3] (pH 7.4). The MBC4 h in data set [1] (4 h exposure) and in data set [1] (setting [5]) was 8000 µg/mL in each case.
Take `NCCNCCN` [DETA, diethylenetriamine]: the “concentration at which toxic” value in data set [4] (FIG. 21e) stood at 4000 µg/mL. The “bactericidal efficacy (in words)” value in data set [1] (4 h incubation) is on record as “highly antimicrobial”. The MBC in data set [1] (4 h exposure, 3-log reduction in viability, read-out: MBC4 h) is 250 µg/mL (≈ 2420 µM).
